Data reported in US10624338B2, “Nitrite microencapsulation, and uses of microencapsulated nitrite in the manufacture of pest baits” (priority 2016, dated 2020).

Assay: Scanning electron microscope inspection of encapsulated granules
Assay type: physicochemical
Settings: SEM
Protocol: NaNO2 granules (food grade E250, BASF) approximately 0.2-1.0 mm and zein (USP30/NF25, Rebain International Ltd) were used as supplied. NaNO2 granules were dried in a commercial oven for 12 hours at 60° C. to remove any residual moisture. NaNO2 granules (500 g) were coated using a pan coating process; zein (10%) was dissolved in a mixture of water (10%) and ethanol (80%). For coatings containing plasticizer, zein (9.9%) was dissolved in a mixture of water (10%) and ethanol (80%) and either glycerol, PVP or PEG 400 were added at 0.1% to make a mixture containing zein and one of the potential plasticizers. To coat the NaNO2, 500 g of granules were placed in a spherical pan, the pan was rotated at 20 revolutions per minute, the liquid encapsulant solution was sprayed onto the granules at one litre per hour while the whole was warmed to 40° C. by warm predried air directed onto the granule bed to progressively evaporate the solvents. Once all coating material was applied the granules continued to be rotated to ensure drying.
NaNO2 coated in each of the four different solutions outlined above as well as uncoated NaNO2 granules were assessed visually using a scanning electron microscope (SEM) (Philips XL30S FEG, Netherlands). Samples were sputter coated with gold for 2 min (Quorum Technologies Polaron SC 7640 sputter coater, England) and viewed at an accelerating voltage of 5 kV. […]

SMILES: O=N[O-].[Na+] [Uncoated NaNO2 granules, sodium nitrite]
- aggregation of granules (54x/55x and 250x magnification): strong tendency to aggregate
- surface of granule / coat (cracks) (1000x magnification): covered in surface fissures
